Reference: patent publication US20260138970A1, “MODULATORS OF THE CALCIUM SIGNALING CASCADE” (FONDAZIONE TELETHON ETS, priority 2022, published 2026)

Legend:
Format in all cases: cell-based
[1] = tested on: TMEM16A; experiment: Short-circuit current recordings on FRT epithelia with stable expression of TMEM16A; settings: compounds 10 μM; UTP 0.25 μM apical; vs vehicle; FIG. 1C
Procedure: (§1) Snapwell supports (3801, Corning) carrying FRT and differentiated HBEC epithelia were mounted in a vertical chamber resembling an Ussing system with internal fluid circulation (EM-CSYS-8, Physiologic Instruments, San Diego, CA, USA). For FRT epithelia, the apical and basolateral hemichambers were filled with solutions of different composition. The apical solution (5 ml) contained (in mM): 63 NaCl, 63 sodium gluconate, 0.38 KH2PO4, 2.13 K2HPO4, 2 CaCl2, 1 MgSO4, 20 Na-Hepes (pH 7.3), and 10 glucose. The basolateral solution (5 ml) instead contained (in mM): 126 KCl, 0.38 KH2PO4, 2.13 K2HPO4, 1 CaCl2, 1 MgSO4, 20 Na-Hepes (pH 7.3), and 10 glucose. Both solutions were continuously bubbled with air and the temperature of the solution was kept at 37° C. For HBECs, the same (bicarbonate-buffered) solution was used in both chambers. The composition of this solution was (in mM): 126 NaCl, 0.38 KH2PO4, 2.13 K2HPO4, 1 MgSO4, 1 CaCl2), 24 NaHCO3, and 10 glucose. Both sides were continuously bubbled with a gas mixture containing 5% CO2 and 95% air. The temperature of the solution was kept at 37° C. throughout the experiment.
(§2) Transepithelial voltage was short-circuited with a voltage-clamp (VCC MC8, Physiologic Instruments, San Diego, CA, USA) connected to the apical and basolateral chambers via Ag—AgCl electrodes and agar bridges (2% agar in 1 M KCl). The offset between voltage electrodes and the fluid resistance were cancelled before experiments. The resulting short-circuited current from each channel was recorded on a personal computer with the Acquire & Analize 2.3 software (Physiologic Instruments, San Diego, CA, USA).

[2] = target: T1, ITPR3 (Homo sapiens, UniProt Q14573); experiment: Fluo-4 Ca2+ assay, UTP, HEK293 cells with selective expression of ITPR3 (HEKR3); settings: compounds 10 μM; UTP 5 μM; FIG. 2C
T1 construct: host or cells: HEKR3 (HEK293)
Procedure: HEK293 cells totally devoid of ITPR expression (HEK3XKO) or with selective expression of ITPR1 (HEKR1), ITPR2 (HEKR2), or ITPR3 (HEKR3), obtained by selective gene ablation, were purchased from Kerafast (catalog number: EURO30, EURO31, EURO32, EURO33) and cultured in a mixture of Dulbecco's Modified Eagle Medium (DMEM, high glucose version) and Ham's F12 (1:1) and supplemented with 10% fetal bovine serum, 2 mM L-glutamine, 100 U/ml penicillin and 100 μg/ml streptomycin.
(§3) Experiments were performed using the microplate reader described for the HS-YFP assay. FRT and HEK293 cells were cultured until confluence in 96-well microplates (3603, Corning). Cells were washed 2 times with PBS (150 μl/wash) and then loaded for 1 h at 37° C. with 5 μM Fluo-4/AM (Thermo Fisher Scientific; catalog number: F23917) in PBS containing 10 mM glucose, 0.5 mM sulfinpyrazone, and 1% fetal bovine serum. After loading, cells were washed 2 times with PBS-glucose-sulfinpyrazone (150 μl/wash) and incubated for 20 min at 37° C. with 60 μl of PBS plus 10 mM glucose and 0.5 mM sulfinpyrazone containing compounds of interest at 10 μM final concentration or vehicle. Each well was assayed individually. Fluo-4 fluorescence (500 nm excitation, 535 nm emission) was detected every 200 ms for 16-40 s. Two seconds after the start of fluorescence recording, the reader automatically injected 165 μl of a modified PBS containing 136 mM KCl instead of NaCl. This solution also contained 10 mM glucose, 0.5 mM sulfinpyrazone, and UTP or SLIGR-NH2 (CAS #171436-38-7) at a final concentration that depended on the specific cell type. For UTP we used: 0.25 μM for FRT; 1 μM for HEKR2; 5 μM for HEK3XKO, HEKR1, and HEKR3. For SLIGR-NH2 we used: 10 μM for HEKR1; 4 μM for HEKR2. These concentrations were chosen to elicit ˜20% of maximal effect based on UTP and SLIGR-NH2 dose-response relationships. […] The Fluo-4 fluorescence increase was quantified using a procedure compiled in Microsoft Excel after background subtraction and normalization for the initial value measured before UTP addition.

[3] = tested on: TMEM16A; experiment: Short-circuit current recordings on human cultured bronchial epithelia, UTP-triggered Cl- secretion; settings: UTP 0.25 μM; ARN7149 10 μM, ARN11391 20 μM, ARN4550 20 μM; amiloride, paxillin, inh-172 present; FIG. 5A
Procedure: Human bronchial epithelial cells (HBECs) were isolated and cultured as reported in a previous study (21; 40). Briefly, HBECs were cultured in flasks in a home-made serum-free medium (21). After four to five passages, cells were seeded at high density (500,000/cm^2) on Snapwell porous insert (cc3801, Corning Costar). After 24 h from seeding, the basolateral medium was replaced with differentiation medium PneumaCult ALI (Stemcell Technologies), whereas the apical medium was totally removed to obtain the air-liquid interface (ALI) condition. Epithelia were kept under this condition for at least 2-3 weeks to achieve mucociliary differentiation.
as §1, with “The temperature of the solution was kept at 37° C. throughout the experiment.” left out
as §2, with “The offset between voltage electrodes and the fluid resistance were cancelled before experiments.” left out

[4] = target: T2, R269W ITPR1 (Homo sapiens, UniProt Q14643, R269W); experiment: Fluo-4 Ca2+ assay, UTP, HEK293 cells with inducible R269W ITPR1; settings: UTP 5 μM; compound 10 μM; tetracycline-induced; FIG. 6B-C
T2 construct: expressed in transfected cells
Procedure: HEK293 cells stably transfected with tetracycline-inducible expression of wild type or mutant (R269W or T267M) ITPR1, kindly provided by Prof. S. R. Wayne Chen (University of Calgary; ref. 14), were cultured in a mixture of Dulbecco's Modified Eagle Medium (DMEM, high glucose version) and Ham's F12 (1:1) and supplemented with 10% fetal bovine serum, 2 mM L-glutamine, 100 U/ml penicillin and 100 μg/ml streptomycin. Cells were selected with 0.5 mg/ml hygromycin B and induced with 1 μg/ml tetracycline.
as §3

T1 sequence (Q14573 whole entry): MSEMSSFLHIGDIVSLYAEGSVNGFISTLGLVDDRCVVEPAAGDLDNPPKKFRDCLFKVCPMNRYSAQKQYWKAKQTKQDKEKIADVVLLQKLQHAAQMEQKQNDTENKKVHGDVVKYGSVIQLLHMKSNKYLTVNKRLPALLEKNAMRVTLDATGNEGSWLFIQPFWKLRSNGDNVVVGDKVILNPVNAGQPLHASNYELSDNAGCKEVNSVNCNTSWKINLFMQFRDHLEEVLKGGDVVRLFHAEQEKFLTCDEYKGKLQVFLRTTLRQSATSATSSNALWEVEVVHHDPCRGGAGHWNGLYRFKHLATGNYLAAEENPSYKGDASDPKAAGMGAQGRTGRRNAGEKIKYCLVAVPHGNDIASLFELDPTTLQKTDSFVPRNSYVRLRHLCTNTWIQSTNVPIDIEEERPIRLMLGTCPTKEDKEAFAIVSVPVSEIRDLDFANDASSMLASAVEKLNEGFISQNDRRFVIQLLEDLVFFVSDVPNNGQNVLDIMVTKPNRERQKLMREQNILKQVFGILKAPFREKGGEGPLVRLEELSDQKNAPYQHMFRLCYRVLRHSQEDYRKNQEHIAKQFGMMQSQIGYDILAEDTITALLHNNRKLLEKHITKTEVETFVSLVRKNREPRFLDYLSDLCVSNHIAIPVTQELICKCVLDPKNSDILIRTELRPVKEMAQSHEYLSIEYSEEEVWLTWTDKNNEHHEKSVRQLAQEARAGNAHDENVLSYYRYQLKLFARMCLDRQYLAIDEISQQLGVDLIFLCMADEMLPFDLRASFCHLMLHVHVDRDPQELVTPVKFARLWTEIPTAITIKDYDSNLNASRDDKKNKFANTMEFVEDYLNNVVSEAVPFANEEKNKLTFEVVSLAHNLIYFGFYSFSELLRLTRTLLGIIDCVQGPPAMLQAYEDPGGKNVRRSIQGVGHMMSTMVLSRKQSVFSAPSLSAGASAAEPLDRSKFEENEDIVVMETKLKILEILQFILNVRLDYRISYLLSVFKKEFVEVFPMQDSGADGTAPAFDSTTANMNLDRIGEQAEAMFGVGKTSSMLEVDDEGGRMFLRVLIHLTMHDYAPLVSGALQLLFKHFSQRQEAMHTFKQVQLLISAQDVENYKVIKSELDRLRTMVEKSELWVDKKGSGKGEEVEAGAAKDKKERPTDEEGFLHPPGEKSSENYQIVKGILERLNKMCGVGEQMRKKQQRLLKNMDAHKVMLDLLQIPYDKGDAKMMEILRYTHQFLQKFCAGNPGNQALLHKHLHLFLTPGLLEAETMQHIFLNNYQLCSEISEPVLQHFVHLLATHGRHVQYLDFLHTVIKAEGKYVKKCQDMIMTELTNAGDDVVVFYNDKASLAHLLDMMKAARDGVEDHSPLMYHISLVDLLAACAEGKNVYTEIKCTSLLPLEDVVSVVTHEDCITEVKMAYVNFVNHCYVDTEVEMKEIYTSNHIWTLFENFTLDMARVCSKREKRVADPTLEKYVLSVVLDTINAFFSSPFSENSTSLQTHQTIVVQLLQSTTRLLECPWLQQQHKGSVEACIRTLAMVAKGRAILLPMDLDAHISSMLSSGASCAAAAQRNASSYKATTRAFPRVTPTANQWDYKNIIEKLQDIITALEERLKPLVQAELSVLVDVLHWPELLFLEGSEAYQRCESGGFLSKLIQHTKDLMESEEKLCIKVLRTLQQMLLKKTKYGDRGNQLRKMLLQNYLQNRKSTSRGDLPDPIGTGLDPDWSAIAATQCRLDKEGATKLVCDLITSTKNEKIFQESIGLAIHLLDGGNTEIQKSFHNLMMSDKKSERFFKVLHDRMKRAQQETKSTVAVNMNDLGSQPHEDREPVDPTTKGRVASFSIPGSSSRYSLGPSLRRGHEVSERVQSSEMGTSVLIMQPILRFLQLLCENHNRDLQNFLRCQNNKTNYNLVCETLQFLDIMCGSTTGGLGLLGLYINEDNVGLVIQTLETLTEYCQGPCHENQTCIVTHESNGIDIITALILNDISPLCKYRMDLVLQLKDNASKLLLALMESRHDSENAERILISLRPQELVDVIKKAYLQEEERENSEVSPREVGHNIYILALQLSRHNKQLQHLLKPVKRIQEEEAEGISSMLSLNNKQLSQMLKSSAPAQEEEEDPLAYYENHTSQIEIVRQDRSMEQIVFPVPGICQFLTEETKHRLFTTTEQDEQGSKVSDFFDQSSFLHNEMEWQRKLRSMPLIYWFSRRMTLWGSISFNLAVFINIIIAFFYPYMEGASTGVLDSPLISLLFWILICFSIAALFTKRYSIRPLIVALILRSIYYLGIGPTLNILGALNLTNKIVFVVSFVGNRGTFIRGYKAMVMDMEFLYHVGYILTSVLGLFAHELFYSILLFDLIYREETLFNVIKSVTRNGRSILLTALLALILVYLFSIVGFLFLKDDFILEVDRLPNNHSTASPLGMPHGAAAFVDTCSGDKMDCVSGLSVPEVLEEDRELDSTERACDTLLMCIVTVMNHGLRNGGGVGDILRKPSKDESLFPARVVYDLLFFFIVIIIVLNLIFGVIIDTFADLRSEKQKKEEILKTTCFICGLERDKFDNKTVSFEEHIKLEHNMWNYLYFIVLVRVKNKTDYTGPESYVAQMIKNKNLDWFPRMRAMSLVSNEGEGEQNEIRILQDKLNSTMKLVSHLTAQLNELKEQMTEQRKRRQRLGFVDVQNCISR

Row | SMILES | peak of Cl- current elicited by UTP (short-circuit current) [1] | potentiation of UTP-elicited Ca2+ increase, ITPR3-only cells [2] | transepithelial Cl- current elicited by apical UTP [3] | potentiation of Ca2+ mobilization elicited by UTP, R269W mutant [4]
1 | OCc1ccccc1CN(Cc1ccnc(N2CCCC2)n1)c1ccc(F)cc1 [ARN4550, [2-[[4-Fluoro-N-[(2-pyrrolidin-1-ylpyrimidin-4-yl)methyl]anilino]methyl]phenyl]methanol] | significantly enhanced | always effective | significantly enhanced | also effective although less than ARN11391
2 | CCc1cc(-c2cc(NCCCOc3ccccc3C)nc(N)n2)n(C)n1 [ARN7149, 6-(3-Ethyl-1-methyl-1H-pyrazol-5-yl)-N^4-(3-(o-tolyloxy)propyl)pyrimidine-2,4-diamine] | significantly enhanced | always effective | significantly enhanced | also effective although less than ARN11391
3 | CCn1nc2c(c1C(=O)Nc1ccccc1OCC1CCCCO1)CCCC2 (stereo not drawn) [ARN11391, 2-Ethyl-N-[2-(tetrahydropyran-2-ylmethoxy)phenyl]-4,5,6,7-tetrahydroindazole-3-carboxamide] | significantly enhanced | only effective in cells with ITPR1 | significantly enhanced | marked potentiation
